How the values were obtained:
Type in all cases: in vivo, mouse
Winnie mice [1] = test: Intestinal inflammation: faecal lipocalin (Lcn)-2 ELISA; conditions: day 14; mean±SEM, n=5
Method: The small molecular APE1/Ref-1 antagonist; APX3330, was administered via IP injections in Winnie mice at a dose of 25 mg/kg (30 G needle, max volume 200 μl) dissolved in Cremphore (2%) (Sigma-Aldrich): Ethanol (2%) in sterile water (96%). Mice received alternating IP injections twice a day with 12-hour intervals, over the course of two weeks during predominate intestinal inflammation. Winnie-sham treated mice received vehicle injections excluding APX3330 drugs. All mice were monitored, weighed and faecal pellets were collected over the course of treatment. Faecal lipocalin (Lcn)-2 ELISA kit (Abcam) were used to detect efficacy of APX3330 on levels of colonic inflammation. Faecal samples collected on day 14 of treatments from control C57BL/6, Winnie-Sham treated and Winnie-APX3330 treated mice were reconstituted in PBS-0.1 TWEEN 20 (100 mg/mL) to form a homogenous faecal suspension. Homogenous suspension was centrifuged for 10 minutes at 12000 RPM at 4° C. Lcn-2 were determined in the clear supernatants. All samples were repeated in duplicates for statistical value. […] Microplate reader capable of measuring absorbance at 450 nm, with the correction wavelength set at 540 nm was used to detect Lcn-2 protein (pg/mL) in faecal pellet supernatant.

Winnie mice [2] = test: Intestinal permeability: FABP1 ELISA in blood sera; conditions: day 14; mean±SEM, n=5
Method: The small molecular APE1/Ref-1 antagonist; APX3330, was administered via IP injections in Winnie mice at a dose of 25 mg/kg (30 G needle, max volume 200 μl) dissolved in Cremphore (2%) (Sigma-Aldrich): Ethanol (2%) in sterile water (96%). Mice received alternating IP injections twice a day with 12-hour intervals, over the course of two weeks during predominate intestinal inflammation. Winnie-sham treated mice received vehicle injections excluding APX3330 drugs. All mice were monitored, weighed and faecal pellets were collected over the course of treatment. On day 14, mice were subjected to an overdose of lethobarb (1:16 dilution, 30 G, 100 μl/20 g) IP injections for blood collections prior to harvesting colon tissues. Puncture allowed for a minimal collection of 600 μl of blood via a 26 G needle. Blood was kept on ice for 2 hours, centrifuged at 12×G at 4° C. for 15 minutes were plasma was collected and stored at −20° C. for subsequent ELISA experiments. Quantikine ELISA (mouse/rat FABP1/L-FABP) (Abcam) measured sera levels for fatty acid binding protein (FABP)-1. All samples were repeated in duplicates for statistical value. […] Microplate reader capable of measuring absorbance at 450 nm, with the correction wavelength set at 540 nm was used to detect FABP-1 protein (ng/mL) in blood sera.

Winnie mice [3] = test: Ex vivo whole organ bath colonic motility of colons from treated mice; conditions: excised whole colons of treated Winnie mice; mean±SEM, n=5
Method: The small molecular APE1/Ref-1 antagonist; APX3330, was administered via IP injections in Winnie mice at a dose of 25 mg/kg (30 G needle, max volume 200 μl) dissolved in Cremphore (2%) (Sigma-Aldrich): Ethanol (2%) in sterile water (96%). Mice received alternating IP injections twice a day with 12-hour intervals, over the course of two weeks during predominate intestinal inflammation. Winnie-sham treated mice received vehicle injections excluding APX3330 drugs. All mice were monitored, weighed and faecal pellets were collected over the course of treatment. Colonic motility experiments were completed ex vivo. Whole colons were removed from control C57BL/6, Winnie-sham treated and Winnie-APX3330 treated mice. Colons were positioned horizontally cannulated at the oral and anal end in an organ bath superfused with carbogenated (composition in mM: NaCl 118, KCl 4.6, CaCl2 3.5, MgSO4 1.2, NAH2PO4 1, NaHCO3 25 and d-Glucose; carbongenated with 95% O2 and 5% CO2) ×1 Krebs solution whilst maintained at a temperature of 37° C. The oral cannula was connected to a reservoir with 1× Krebs solution that was adjusted to maintain intraluminal pressure (0 to +2 cm H2O). The anal end was coupled to an out-flow tube with a maximum 2 cm H2O backpressure. A recording was made by a video camera being positioned above the organ bath, this recorded the colonic contractile activity. Tissue were left to equilibrate for 30 minutes prior to 2× 20-minute recordings at increasing intraluminal pressure. Videos were transposed into spatiotemporal maps with Scribble v2.0 software and were analysed by using MATLAB, v2017a software to assess parameters of colonic motility.

CCCCCCCCCC(=CC1=C(C)C(=O)C(OC)=C(OC)C1=O)C(=O)O [APX3330]
Lcn-2 faecal level (Winnie mice [1]): 36 ± 2.0 pg/mL
FABP1 in blood sera (Winnie mice [2]): 0.6 ± 0.2 ng/mL
proportional length of colonic migrating motor complexes (CMMCs) (Winnie mice [3]): 73±1.0%
proportional short contraction length (<50% of colon length) (Winnie mice [3]): 33.9±3.8%
total length of colonic contractions relative to total colon length (Winnie mice [3]): 62.3±2.4%
